Assay results published in US12208001B2, “Methods and systems for preventing or reducing stenosis in a subject receiving a graft” (The General Hospital Corporation, priority 2012, dated 2025).
Read-outs that look alike come from different tables or passages of the source.

Legend:
[1] = system: vein graft intimal hyperplasia; format: in vivo, Sprague-Dawley rats
Description: In vivo testing was done by placing a. reversed epigastric vein interposition graft in the femoral artery of Sprague-Dawley rats. Grafts were harvested after four weeks. A total of 16 rats underwent a femoral interposition graft with reversed epigastric vein. Half of the vein gratis (N=8) were treated with PTP using 25 J/cm^2 at fluence. Average operative time was two hours. Additional operative time for PTP was 4-5 minutes on average. There were three instances of surgical wound dehiscence between post-operative day one and two; one in the control group and two in the experimental group. These wounds were irrigated and resutured. None of the grafts were exposed. […] After four weeks, 100% of the vein grafts were patent. […] Histologic cross-sections of the mid-portion of the graft were analyzed using light microscopy. Intimal thickness was measured as the distance between the internal elastic lamina. and the vessel lumen.

[2] = system: capsular contracture following prosthetic implant placement; test: Pre-clinical model of capsular contracture following prosthetic implant placement, fibrin glue induced; format: in vivo, New Zealand white rabbits
Description: The effect of Photochemical Tissue Passivation in a pre-clinical model of capsular contracture following prosthetic implant placement was evaluated. Under general anesthesia, Nine New Zealand white rabbits received three, six cc smooth saline implants placed in the dorsal sub-panniculus soft tissue. Each Rabbit received one control implant and two experimental implants. Briefly, the subpanniculus camosus plane in the dorsum region was dissected and a single customized six cc saline smooth implant with pressure port valve (Allergan Inc., CA, USA) was placed. A total of three implants were placed on the dorsum of each rabbit. The control group consisted of an implant with no Fibrin Glue and no PTP treatment. Before implant placement, the pocket site of the PTP experimental group was treated with 2 ml 0.1% Rose Bengal in a phosphate buffered saline, and Was then exposed to green laser light at 532 nm from a continuous wave KTP laser (Laserscope Aura-I, San Jose, CA). The second experimental group consisted of an implant with Fibrin Glue only. Prior to implant placement, all experimental pockets were injected with five cc of fibrin glue, 500 |μl of 10% CaCl, 1000 units of thrombin in one milliliter of 50 mM TrisCl as a contracture inducing agent. The incisions were closed in two layers with subdermal 4-0 […] and 4-0 interrupted nylon sutures. Topical fibrin glue was applied to the implant pockets in all experimental groups to induce subsequent capsular contracture. Accordingly, the experimental groups can be summarized as follows: Group 1: Control group-“Standard Breast Augmentation” One pocket per Rabbit undergoing standard implant placement with no Fibrin Glue or Passivation. One six cc smooth saline implant was placed per pocket. The incisions were closed in two layers with subdermal 4-0 Vicryl and 4-0 interrupted nylon sutures. Group 2: Experimental group-“Fibrin Glue” only One dorsal pocket per Rabbit is dissected. Fibrin glue was injected into the implant pocket as a capsular contracture-inducing agent. One six cc smooth saline implants was placed per pocket. The incision was closed as above. Group 3: Experimental group-“Pre-implant Tissue Passivation” One dorsal pocket per Rabbit was dissected, Rose Bengal dye was applied. The pocket was exposed to green laser light at. 532 nm from. a continuous wave KT.? laser (Laserscope Aura-I, San Jose, CA). Fibrin glue was injected into the implant pocket as a capsular contracture-inducing agent. Following fibrin glue injection, one six cc smooth saline implant was placed per pocket. The incision was closed as above. Capsule specimens were fixed with 10% buffered formalin and embedded in paraffin. Sections were stained with both Masson Trichrome, and SMA antibody and evaluated histologically and capsular thickness was measured. […] In fact, the SMA pattern in capsules harvested from the treated groups resembled those, which had not been instilled with fibrin glue (FIG. 3).

[3] = system: fascia of the implant pocket; test: Biodegradation assay: collagenase digestion of fascia; design: species or system rabbit
Description: A pilot experiment in a rabbit model for capsular contraction was developed. Three sub-cutaneous pockets were made by surgical incision on the upper rabbit flank. One pocket was left untreated and surgically closed (No fibrin glue). Of the remaining two, one was treated with Fibrin Glue only, and one received Fibrin Glue+RB (0.1% Rose Bengal)+532 nm light (3 min at 350 mW). Fibrin glue is known to produce a fibrotic reaction in this model. After two weeks all three pockets were surgically re-accessed and inspected. […] These cells also appear contained under layers of presumably, cross-linked collagen. A biodegradation assay was also performed. Pockets were treated as described above at both a low (1 J/cm^2) and high (25 J/cm^2) fluence. Fluence was measured using FieldMax II laser power meter (Coherent, Santa Clara, CA). Immediately following, the skin and fascia were removed. Treated and untreated fascia were biopsied with a six mm punch biopsy, weighed and subjected to digestion in a 1% collagenase (Sigma Aldrich. St. Louis, MO) solution at 37° C. Time for complete digestion (the lack of any visible fibers) was recorded for each sample and corrected by weight. In vitro studies confirmed that photochemical tissue passivation, under the conditions that were subsequently used in the animal study, could successfully alter the fascia of the implant pocket. […]

[4] = system: rabbit model for capsular contraction; test: Pilot rabbit model for capsular contraction: sub-cutaneous pockets with fibrin glue, histology at two weeks; format: in vivo; settings: tissue harvested at two weeks; 0.1% Rose Bengal + 532 nm light (3 min at 350 mW) prior to fibrin glue; vs fibrin glue only
Description: A pilot experiment in a rabbit model for capsular contraction was developed. Three sub-cutaneous pockets were made by surgical incision on the upper rabbit flank. One pocket was left untreated and surgically closed (No fibrin glue). Of the remaining two, one was treated with Fibrin Glue only, and one received Fibrin Glue+RB (0.1% Rose Bengal)+532 nm light (3 min at 350 mW). Fibrin glue is known to produce a fibrotic reaction in this model. After two weeks all three pockets were surgically re-accessed and inspected. […] These cells also appear contained under layers of presumably, cross-linked collagen. A biodegradation assay was also performed. Pockets were treated as described above at both a low (1 J/cm^2) and high (25 J/cm^2) fluence. Fluence was measured using FieldMax II laser power meter (Coherent, Santa Clara, CA). Immediately following, the skin and fascia were removed. Treated and untreated fascia were biopsied with a six mm punch biopsy, weighed and subjected to digestion in a 1% collagenase (Sigma Aldrich. St. Louis, MO) solution at 37° C. Time for complete digestion (the lack of any visible fibers) was recorded for each sample and corrected by weight.

connective tissue = system: connective tissue
Text: In certain embodiments, a photoactive agent, e.g., Rose Bengal, can be applied, e.g., by brushing, dripping or spraying onto, or injecting into, tissue surfaces (e.g., a single surface in some cases) of a tissue prior to the application of electromagnetic energy, followed by irradiation at an irradiance of less than about 1 W/cm^2. Penetration of topically applied Rose Bengal is about 100 μm or less into connective tissue. […] Similarly, vein grafts or arteriovenous fistula can be prepared for therapeutic use by providing Rose Bengal to the tissue and irradiating the tissue at an irradiance of less than about 1 W/cm^2.

O=C1OC2(c3cc(I)c(O)c(I)c3Oc3c2cc(I)c(O)c3I)c2c(Cl)c(Cl)c(Cl)c(Cl)c21 [PTP, Rose Bengal]
Intimal Thickness ([1]; after four weeks, N = 8, Table 2): 24 + 22 um
Medial thickness ([1]; after four weeks, N = 8, Table 3): 141 + 40 um
vein grafts patent ([1]; after four weeks, all grafts, treated and untreated): 100%
neointimal thickness ([1]; four weeks, PTP 25 J/cm^2, N=8): 24+22 μm
Medial thickness ([1]; four weeks, treated grafts): 141 µm
instances of surgical wound dehiscence ([1]; rat, in vivo): two
pseudoaneurysms or aneurysmal dilatation of the grafts ([1]; rat, in vivo): no pseudoaneurysms or aneurysmal dilatation
wound infections ([1]; rat, in vivo): no wound infections
graft distention after vessel clamp removal ([1]; restored blood flow, compared to untreated controls): less distention
smooth muscle hypertrophy and medial thickness ([1]; treated compared to untreated grafts): marked reduction in smooth muscle hypertrophy and medial thickness
reduction in neointimal thickness ([1]; treated grafts vs untreated): 70%
capsular thickness compared to Fibrin Glue alone control (histology) ([2]; eight weeks, Fibrin Glue + Photochemical Tissue Passivation group): significant decrease in capsular thickness
decrease in capsule thickness ([2]; eight weeks, compared to the controls): 52%
deposition of smooth muscle actin (SMA immunohistochemistry) ([2]; eight weeks, treated pockets vs untreated pockets receiving fibrin glue): significantly less deposition of smooth muscle actin
fibrohistiocystic cells, macrophages and synovial metaplasia ([2]; treated pockets): less fibrohistiocystic cells, macrophages and synovial metaplasia
inflammation and vascularity within the capsule ([2]; treated pockets): decreased inflammation and vascularity
increase in degradation time (collagenase digestion) ([3]; 1% collagenase, 37° C, compared to untreated tissue): 300%
effect of increasing the power of the laser on collagen cross-linking ([3]; high (25 J/cm^2) vs low (1 J/cm^2) fluence): did not increase collagen cross-linking
inflammatory infiltrate within the implant pockets (histology) [4]: less infiltrate
penetration into connective tissue (connective tissue): ≤ 100 μm
